Measured values reported in US20260115336A1, “MOFS WITH BETA-EMITTERS FOR RADIOTHERAPY” (Node Pharma AS, priority 2023, published 2026).

Assays:
[1] = Lu177 radiolabelling (adsorption) of the MOF, iTLC; type: physicochemical; details: 60 kBq [177Lu]LuCl3, 0.005 mol/L MES buffer pH 6, 37° C., 24 hours
Experimental: (§1) Radiolabelling was performed by adding 60 kBq of [^177Lu]LuCl3 solution to a 400 μL suspension of UiO-66-(COOH)2 (0.6 mg) in 0.005 mol/L MES buffer (pH 6). A control sample consisting of 60 kBq [^177Lu]LuCl3 in 0.005 mol/L MES buffer was prepared in parallel. The samples were kept at 37° C., under agitation for 24 hours. 35 μL of each sample was dispersed in 400 μL of fetal bovine serum. After 30 minutes, both the radiolabelled-dose and the serum-dose suspensions were subjected to instant thin layer chromatography (iTLC) under the following conditions: 5 μL drops were placed on glass fiber iTLC strips, which were then placed in a TLC chamber with 20 mM sodium citrate (pH 6.5) as mobile phase. Upon completion, the application point and the top of the iTLC strip were measured separately using a Hidex gamma counter.

[2] = Retention of Lu177 in the MOF in serum, iTLC; type: in vitro ADME; details: fetal bovine serum, after 30 minutes
Experimental: as §1

[Cl][Lu]([Cl])[Cl] [LuCl3, [^177Lu]LuCl3]
Labelling, RCP (radiochemical purity) [1]: 1% | Serum retention (retention of Lu in serum) [2]: 3%
